Patent publication US10131652B2, “Pyrimidinyloxy benzene derivatives as herbicides” (E. I. DU PONT DE NEMOURS AND COMPANY, priority 2014, dated 2018)

How the values were obtained:
Assay type in all cases: in vivo
[1] = tested on: morningglory (Ipomoea spp.); assay: Test B pre-/postemergence plant response
Procedure, shortened: (§1)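 Greenhouse pots, loam/sand soil; compound formulated with surfactant in non-phytotoxic solvent. Preemergence soil spray and postemergence spray at 1–2 leaf stage run simultaneously. Visual injury, 0–100, about 10 days post-treatment.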

[2] = tested on: wheat (Triticum aestivum); assay: Test B pre-/postemergence plant response
Procedure, shortened: as §1

[3] = tested on: barnyardgrass (Echinochloa crus-galli); assay: Test B pre-/postemergence plant response
Procedure, shortened: as §1

corn (Zea mays) = assay: Test B pre-/postemergence plant response
Procedure, shortened: as §1

[4] = tested on: velvetleaf (Abutilon theophrasti); assay: Test B pre-/postemergence plant response
Procedure, shortened: as §1

[5] = tested on: pigweed (Amaranthus retroflexus); assay: Test B pre-/postemergence plant response
Procedure, shortened: as §1

[6] = tested on: large (Lg) crabgrass (Digitaria sanguinalis); assay: Test B pre-/postemergence plant response
Procedure, shortened: as §1

[7] = tested on: giant foxtail (Setaria faberii); assay: Test B pre-/postemergence plant response
Procedure, shortened: as §1

[8] = tested on: barnyardgrass (Echinochloa crus-galli); assay: Test C flooded paddy test plant response; settings: Flood, 250 g ai/ha; scale of 0 to 100 where 0 is no effect and 100 is complete control; 13 to 15 days
Procedure, shortened: (§2)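 Plants grown to the 2-leaf stage; pots flooded to 3 cm above soil, test compounds applied directly to paddy water, depth maintained throughout. Greenhouse for 13 to 15 days, then visual rating versus controls on a 0–100 scale (0 no effect, 100 complete control).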

rice (Oryza sativa) = assay: Test C flooded paddy test plant response; settings: Flood, 250 g ai/ha; scale of 0 to 100 where 0 is no effect and 100 is complete control; 13 to 15 days
Procedure, shortened: as §2

[9] = tested on: ducksalad (Heteranthera limosa); assay: Test C flooded paddy test plant response; settings: Flood, 250 g ai/ha; scale of 0 to 100 where 0 is no effect and 100 is complete control; 13 to 15 days
Procedure, shortened: as §2

[10] = tested on: small-flower umbrella sedge (Cyperus difformis); assay: Test C flooded paddy test plant response; settings: Flood, 250 g ai/ha; scale of 0 to 100 where 0 is no effect and 100 is complete control; 13 to 15 days
Procedure, shortened: as §2

[11] = 125 g ai/ha, postemergence, 0 to 100 scale, 0 no effect, 100 complete control
[12] = Postemergence, 500 g ai/ha, 0 to 100 scale (0 no effect, 100 complete control)
[13] = Preemergence, 125 g ai/ha, 0 to 100 scale where 0 is no effect and 100 is complete control
[14] = Preemergence, 500 g ai/ha, 0 to 100 scale where 0 is no effect and 100 is complete control
[15] = Preemergence, 125 g ai/ha, 0 to 100 scale (0 no effect, 100 complete control)
[16] = 500 g ai/ha, postemergence, 0 to 100 scale, 0 no effect, 100 complete control

| SMILES | Plant response rating, Morningglory [1, 11] | Plant response rating, Morningglory [1, 12] | Plant response rating, Morningglory [1, 14] | Plant response rating, Wheat [2, 11] | Plant response rating, Wheat [2, 12] | Plant response rating, Wheat [2, 14] | Plant response rating, Barnyardgrass [3, 11] | Plant response rating, Barnyardgrass [3, 12] | Plant response rating, Barnyardgrass [3, 14] | Plant response rating, Corn (corn (Zea mays); [11]) | Plant response rating, Corn (corn (Zea mays); [12]) | Plant response rating, Corn (corn (Zea mays); [14]) | Plant response rating, Velvetleaf [4, 14] | Plant response rating, Pigweed [5, 14] | Plant response rating, Crabgrass, Large [6, 14] | Plant response rating, Foxtail, Giant [7, 14] | Barnyardgrass plant response rating [8] | Rice plant response rating (rice (Oryza sativa)) | Ducksalad plant response rating [9] | Sedge, Umbrella plant response rating [10] | other results |
| --- | --- | --- | --- | --- | --- | --- | --- | --- | --- | --- | --- | --- | --- | --- | --- | --- | --- | --- | --- | --- | --- |
| FC(F)(F)c1cc(-c2ccccc2Oc2ncc(Br)cn2)on1 [Compound 64] | 70 | 100 | 60 | 0 | 10 | 30 | 90 | 100 | 100 | 20 | 30 | 20 | 90 | 100 | 100 | 100 | 35 | 0 | 95 | 80 | Plant response rating, Morningglory [1, 13]: 0; Plant response rating, Wheat [2, 13]: 0; Plant response rating, Barnyardgrass [3, 13]: 60; Plant response rating, Corn (corn (Zea mays); [13]): 0; Plant response rating, Velvetleaf [4, 11]: 100; Plant response rating, Velvetleaf [4, 12]: 100; Plant response rating, Velvetleaf [4, 13]: 80; Plant response rating, Pigweed [5, 11]: 100; Plant response rating, Pigweed [5, 12]: 100; Plant response rating, Pigweed [5, 13]: 100; Plant response rating, Crabgrass, Large [6, 11]: 60; Plant response rating, Crabgrass, Large [6, 12]: 90; Plant response rating, Crabgrass, Large [6, 13]: 100; Plant response rating, Foxtail, Giant [7, 11]: 60; Plant response rating, Foxtail, Giant [7, 12]: 80; Plant response rating, Foxtail, Giant [7, 13]: 90 |
| Cc1noc(C)c1-c1c(C#N)cccc1Oc1ncc(Cl)cn1 [Compound 134] | 10 | 90 | 80 | 10 | 30 | 20 | 20 | 90 | 90 | 10 | 80 | 60 | 100 | 100 | 100 | 100 | 0 | 0 | 40 | 75 | Morningglory plant response rating [1, 15]: 10; Wheat plant response rating [2, 15]: 20; Barnyardgrass plant response rating [3, 15]: 70; Corn plant response rating (corn (Zea mays); [15]): 20; Plant response rating, Velvetleaf [4, 11]: 40; Plant response rating, Velvetleaf [4, 12]: 90; Velvetleaf plant response rating [4, 15]: 40; Plant response rating, Pigweed [5, 11]: 60; Plant response rating, Pigweed [5, 12]: 100; Pigweed plant response rating [5, 15]: 100; Plant response rating, Crabgrass, Large [6, 11]: 10; Plant response rating, Crabgrass, Large [6, 12]: 100; Crabgrass, Large plant response rating [6, 15]: 100; Plant response rating, Foxtail, Giant [7, 11]: 10; Plant response rating, Foxtail, Giant [7, 12]: 90; Foxtail, Giant plant response rating [7, 15]: 90 |
| Clc1ccc(-c2c(Br)cccc2Oc2ncc(Cl)cn2)nc1 [Compound 135] | 20 | 50 | 10 | 0 | 10 | 0 | 10 | 40 | 60 | 10 | 30 | 0 | 60 | 100 | 100 | 100 | 0 | 0 | 0 | 0 | Morningglory plant response rating [1, 15]: 0; Wheat plant response rating [2, 15]: 0; Barnyardgrass plant response rating [3, 15]: 10; Corn plant response rating (corn (Zea mays); [15]): 0; Plant response rating, Velvetleaf [4, 11]: 40; Plant response rating, Velvetleaf [4, 12]: 80; Velvetleaf plant response rating [4, 15]: 20; Plant response rating, Pigweed [5, 11]: 100; Plant response rating, Pigweed [5, 12]: 100; Pigweed plant response rating [5, 15]: 90; Plant response rating, Crabgrass, Large [6, 11]: 10; Plant response rating, Crabgrass, Large [6, 12]: 50; Crabgrass, Large plant response rating [6, 15]: 80; Plant response rating, Foxtail, Giant [7, 11]: 10; Plant response rating, Foxtail, Giant [7, 12]: 60; Foxtail, Giant plant response rating [7, 15]: 60 |
| Cn1nc(C(F)(F)F)cc1-c1c(C#N)cccc1Oc1ncc(Cl)cn1 [Compound 136] | – | 90 | 90 | – | 40 | 30 | – | 90 | 100 | – | 70 | 40 | 100 | 100 | 100 | 100 | 0 | 0 | 40 | 40 | Plant response rating, Velvetleaf [4, 12]: 100; Plant response rating, Pigweed [5, 12]: 100; Plant response rating, Crabgrass, Large [6, 12]: 90; Plant response rating, Foxtail, Giant [7, 12]: 80 |
| Clc1cnc(Oc2ccccc2-c2nccs2)nc1 [Compound 199] | 0 | 10 | 0 | 0 | 0 | 0 | 0 | 0 | 0 | 0 | 0 | 0 | 10 | 30 | 10 | 0 | 0 | 0 | 0 | 80 | Morningglory plant response rating [1, 15]: 0; Wheat plant response rating [2, 15]: 0; Barnyardgrass plant response rating [3, 15]: 0; Corn plant response rating (corn (Zea mays); [15]): 0; Plant response rating, Velvetleaf [4, 11]: 0; Plant response rating, Velvetleaf [4, 12]: 10; Velvetleaf plant response rating [4, 15]: 0; Plant response rating, Pigweed [5, 11]: 10; Plant response rating, Pigweed [5, 12]: 30; Pigweed plant response rating [5, 15]: 0; Plant response rating, Crabgrass, Large [6, 11]: 0; Plant response rating, Crabgrass, Large [6, 12]: 10; Crabgrass, Large plant response rating [6, 15]: 0; Plant response rating, Foxtail, Giant [7, 11]: 0; Plant response rating, Foxtail, Giant [7, 12]: 0; Foxtail, Giant plant response rating [7, 15]: 0 |
| O=[N+]([O-])c1cc(Cl)cnc1-c1ccccc1Oc1ncc(Cl)cn1 [Compound 201] | 0 | – | 0 | 0 | – | 0 | 0 | – | 0 | 0 | – | 0 | 0 | 0 | 0 | 0 | 0 | 0 | 0 | 0 | Plant response rating, Morningglory [1, 16]: 0; Morningglory plant response rating [1, 15]: 0; Plant response rating, Wheat [2, 16]: 0; Wheat plant response rating [2, 15]: 0; Plant response rating, Barnyardgrass [3, 16]: 0; Barnyardgrass plant response rating [3, 15]: 0; Plant response rating, Corn (corn (Zea mays); [16]): 0; Corn plant response rating (corn (Zea mays); [15]): 0; Plant response rating, Velvetleaf [4, 11]: 0; Plant response rating, Velvetleaf [4, 16]: 0; Velvetleaf plant response rating [4, 15]: 0; Plant response rating, Pigweed [5, 11]: 0; Plant response rating, Pigweed [5, 16]: 0; Pigweed plant response rating [5, 15]: 0; Plant response rating, Crabgrass, Large [6, 11]: 0; Plant response rating, Crabgrass, Large [6, 16]: 0; Crabgrass, Large plant response rating [6, 15]: 0; Plant response rating, Foxtail, Giant [7, 11]: 0; Plant response rating, Foxtail, Giant [7, 16]: 0; Foxtail, Giant plant response rating [7, 15]: 0 |
